Experiments:
Format in all cases: cell-based
sAC^KO mouse melanocytes [1] = assay: LysoSensor Yellow/Blue DND-160 organelle pH assay; details: 30 μM, 4 hours
Description: (§1) To determine the pH of the sAC^KO and sAC^FF melanocytes the pH-sensitive vital dye LysoSensor Yellow/Blue DND-160 (Bellono et al. Sci Rep., 6:26570 (2016)) was used. Briefly, cells were incubated with 1 μM LysoSensor DND-160 (Invitrogen) for 5 minutes at 37° C. Lysosensor was excited at 405 nm and its emission detected at 417-483 nm (W1) and 490-530 nm (W2). The ratio of emissions (W1/W2) in Lysosensor-stained puncta was assigned to a pH value based on a calibration curve generated for each experiment using solutions containing 125 mM KCl, 25 mM NaCl, 24 μM monensin, and varying concentrations of MES to adjust the pH to 4, 4.5, 5.0, 5.5, 6.0, 6.5, 7.0, 7.5. The fluorescence ratio was linear for pH 5.0-7.0.
as §1, with “The effect” for “To determine the pH”, “pharmacologic inhibition of sAC was examined using” for “the sAC^KO and sAC^FF melanocytes”, “vial” for “vital”, “assay, described above.” for “(Bellono et al. Sci Rep., 6:26570 (2016)) was used.”, “Briefly, cultured sAC^FF melanocytes were treated for 4 hours with 30 μM KH7, 30 μM LRE1, or control (untreated). The” for “Briefly,”

sAC^FF mouse melanocytes [2] = assay: LysoSensor Yellow/Blue DND-160 organelle pH assay; details: 30 μM, 4 hours
Description: as §1
as §1, with “The effect” for “To determine the pH”, “pharmacologic inhibition of sAC was examined using” for “the sAC^KO and sAC^FF melanocytes”, “vial” for “vital”, “assay, described above.” for “(Bellono et al. Sci Rep., 6:26570 (2016)) was used.”, “Briefly, cultured sAC^FF melanocytes were treated for 4 hours with 30 μM KH7, 30 μM LRE1, or control (untreated). The” for “Briefly,”

sAC^FF mouse melanocytes [3] = assay: DAMP melanosome pH assay (HMB45 co-staining); details: KH7 30 μM, 4 hours
Description: N-{3-[(2,4-dinitrophenyl)amino]propyl}-N-(3-aminopropyl)methylamine dihydrochloride (DAMP) is a weakly basic amine that is taken up in acidic organelles of live cells and which has been used to measure melanosome pH (Bin et al., PLOS One, 10(6):e0129273 (2015); Tabata et al., Cell Tissue Res., 332(3): 447-460 (2008)). Cells were cultured on sterile glass coverslips in 24-mm wells at 50×10^3 cells/coverslip. […] After permeabilization with 0.1% Triton X-100 in Buffer A at −20° C., the cells were labeled with the supplied anti-DNP antibody (Oxford Biomedical Research) according to kit protocol. Melanosomes were identified using the monoclonal antibody (anti-HMB45, 1:40, Santa Cruz Biotechnology). Fluorescence was detected after secondary staining with Alexa Fluor 546 donkey anti-goat IgG antibody (Invitrogen) and Alexa Fluor 647 donkey anti-mouse IgG antibody (Invitrogen). All quantitative analyses were performed using the Object Count tool in Nikon AR 4.60. For each image, the lower intensity threshold limit of each fluorescence channel was defined as the intensity of the dimmest punctum returned using the 3 points circle threshold tool. The upper intensity threshold limit was set to the maximum value. Equivalent diameter (EqDiameter) was restricted to 1.85-30.00 pixels. Circularity was restricted to 0.20-1.00. Mean fluorescence intensity was measured for all DAMP^+ puncta. Melanosomes were identified as HMB45^+ puncta. DAMP measurements were only recorded when colocalized with HMB45. Frequency distributions were generated for each sample from mean DAMP fluorescence intensity of DAMP^+ melanosomes. All analyses were performed on two replicate coverslips (n≥15 cells per coverslip). Melanosomes were first identified as TRP1^+ or tyrosinase^+ puncta. sAC^+ melanosomes were identified as R52^+ or R21^+ puncta colocalizing with TRP1^+ or tyrosinase^+ puncta. The degree of colocalization between sAC and melanosomes was calculated as the number of sAC+ melanosomes divided by the total number of melanosomes and expressed as a percentage.
The effect of pharmacologic inhibition of sAC was also measured using the DAMP assay described above. Briefly, Cells were cultured on sterile glass coverslips in 24-mm wells at 50×10^3 cells/coverslip and treated or not treated for 4 hours with 30 μM KH7 or LRE1. […] After permeabilization with 0.1% Triton X-100 in Buffer A at −20° C., the cells were labeled with the supplied anti-DNP antibody (Oxford Biomedical Research) according to kit protocol. Melanosomes were identified using the monoclonal antibody (anti-HMB45, 1:40, Santa Cruz Biotechnology). Fluorescence was detected after secondary staining with Alexa Fluor 546 donkey anti-goat IgG antibody (Invitrogen) and Alexa Fluor 647 donkey anti-mouse IgG antibody (Invitrogen). All images were acquired using a Zeiss LSM 880 and analyzed using NIS-Elements AR 4.60 (Nikon).

sAC^KO mouse melanocytes [4] = assay: Cellular eumelanin content; details: 96 hours
Description: (§2) FIGS. 15A-15J provide the results of experiments analyzing the effect of sAC activity on melanin production. FIG. 15A is a graph illustrating the cellular eumelanin and pheomelanin content in sAC^FF (FF) and sAC^KO (KO) mouse melanocytes. Numbers above bars represent the ratio of pheomelanin to eumelanin. Average of triplicate determinations. FIG. 15B is a graph illustrating the cellular eumelanin content of sAC^FF and sAC^KO mouse melanocytes grown for 96 hours in the absence (−, DMSO) or presence of KH7 (+, 30 μM). Average of triplicate determinations. FIG. 15C is a graph illustrating the fold over baseline cellular eumelanin level of human melanocytes (n=8) treated with KH7 (30 μM) or vehicle (DMSO) for 48 hours. All assays performed in triplicate. Students t-test **P<0.01, ****P<0.0001. FIG. 15D is images of cell pellets of sAC^FF and sAC^KO mouse melanocytes. FIG. 15E is a graph of the melanin levels of pairs of sAC^FF and sAC^KO mouse melanocytes. FIGS. 15F and 15G are images of cell pellets of sAC^FF mouse melanocytes grown in the absence (DMSO, FIGS. 15G and 15F, left panels) or presence of KH7 (FIG. 15G, 30 μM, right panel) or LRE1 (FIG. 15F, 50 μM, right panel) for 96 hours. FIG. 15H is images of cell pellets of human melanocytes (C226, C38) treated with vehicle control (DMSO, left) or KH7 (30 μM, right) for 48 hours. FIG. 15I is images of cell pellets of human melanocytes (C226) treated with vehicle control (DMSO, left) or ESl-09 (10 μM, right) for 48 hours. FIG. 15J is a graph illustrating the fold over baseline cellular (eumelanin) level of human melanocytes treated with ESl-09 (10 μM) or vehicle (DMSO) for 48 hours (n=3, distinct human cell lines). For FIGS. 15E and 15J Students t-test, *p<0.05, **p<0.01, ****p<0.0001.

sAC^FF mouse melanocytes [5] = assay: Cellular eumelanin content; details: KH7 30 μM or LRE1 50 μM, 96 hours
Description: as §2

## CC(Sc1nc2ccccc2[nH]1)C(=O)N/N=C/c1cc(Br)ccc1O (stereo not drawn) [KH7]
sAC^KO mouse melanocytes [1]
  pH of LysoSensor-visualized organelles: had no effect
sAC^FF mouse melanocytes [2]
  pH of LysoSensor-visualized organelles: induced an alkaline pH shift
sAC^FF mouse melanocytes [3]; mouse melanocytes
  HMB45 staining intensity: had no effect
sAC^FF mouse melanocytes [3]; sAC^FF mouse melanocytes, cAMP 500 μM, H89 10 μM, PKI 10 μM, ESI-09 10 μM
  melanosome pH (DAMP uptake at HMB45 positive melanosomes), substance alone: reduction in DAMP uptake (alkaline shift in pH)
sAC^KO mouse melanocytes [4]
  eumelanin levels: had no effect
sAC^FF mouse melanocytes [5]
  eumelanin levels: increased eumelanin levels

— US11680264B2, “Methods of modulating melanosome pH and melanin level in cells” (Cornell University, priority 2016, dated 2023)
